These results are taken from patent US20200278355A1, “CONJUGATED PROTEINS AND USES THEREOF” (THE SCRIPPS RESEARCH INSTITUTE, priority 2017, published 2020).

Experiment [1] has as its target T1, TXNRD1 (Homo sapiens, UniProt Q16881).
T1 construct: endogenous in cells; host or cells: H460
In words: isoTOP-ABPP of compound-treated H460 cells: TXNRD1. The class given is cell-based. The following applies: TXNRD1 U648; 40 μM. As to the method:
For analysis of NR0B1 ligands or control compound reactivity, H460 cells or H460 cells expressing luciferase in a 10 cm plate were incubated with indicated compounds in serum/dye-free RPMI for 3 hours at 37° C. Cells were washed once ice-cold PBS and lysed in 1% Triton X-100 dissolved in PBS with protease inhibitors (Sigma) by sonication. Samples were clarified by centrifugation for 10 min at 16,000×g. Lysate was adjusted to 1.5 mg ml^−1 in 500 μL.
Samples were labeled for 1 h at ambient temperature with 100 μM iodoacetamide alkyne (1, IA-alkyne, 5 μL of 10 mM stock in DMSO). Samples were conjugated by copper-catalyzed azide-alkyne cycloaddition (CuAAC) to isotopically labeled, TEV-cleavable tags (TEV-tags). Heavy CuAAC reaction mixtures was added to the DMSO-treated or shGFP control samples and light CuAAC reaction mixture was added to compound-treated or shNRF2 samples. The CuAAC reaction mixture consisted of TEV tags (light or heavy, 10 μL of 5 mM stocks in DMSO, final concentration=100 μM), 1 mM tris(2-carboxyethyl)phosphine hydrochloride (TCEP; fresh 50× stock in water, final concentration=1 mM), ligand (17× stock in DMSO:t-butanol 1:4, final concentration=100 μM) and 1 mM CuSO4 (50× stock in water, final concentration=1 mM). The samples were allowed to react for 1 h at which point the samples were centrifuged (16,000×g, 5 min, 4° C.). […]

Experiment [2] has as its system KEAP1-WT NSCLC cells. In words: Anchorage-independent growth, KEAP1-WT NSCLC cells. In kind it is cell-based, human. The following applies: 5 μM. The source says:
Based on its in situ activity (FIG. 6D and FIG. 12A, 12G) and selectivity (FIGS. 6A, 6B), BPK-29 was chosen for additional biological studies. […] Exogenous expression of […] the growth inhibition caused by BPK-29.

T1 sequence (Q16881 whole entry): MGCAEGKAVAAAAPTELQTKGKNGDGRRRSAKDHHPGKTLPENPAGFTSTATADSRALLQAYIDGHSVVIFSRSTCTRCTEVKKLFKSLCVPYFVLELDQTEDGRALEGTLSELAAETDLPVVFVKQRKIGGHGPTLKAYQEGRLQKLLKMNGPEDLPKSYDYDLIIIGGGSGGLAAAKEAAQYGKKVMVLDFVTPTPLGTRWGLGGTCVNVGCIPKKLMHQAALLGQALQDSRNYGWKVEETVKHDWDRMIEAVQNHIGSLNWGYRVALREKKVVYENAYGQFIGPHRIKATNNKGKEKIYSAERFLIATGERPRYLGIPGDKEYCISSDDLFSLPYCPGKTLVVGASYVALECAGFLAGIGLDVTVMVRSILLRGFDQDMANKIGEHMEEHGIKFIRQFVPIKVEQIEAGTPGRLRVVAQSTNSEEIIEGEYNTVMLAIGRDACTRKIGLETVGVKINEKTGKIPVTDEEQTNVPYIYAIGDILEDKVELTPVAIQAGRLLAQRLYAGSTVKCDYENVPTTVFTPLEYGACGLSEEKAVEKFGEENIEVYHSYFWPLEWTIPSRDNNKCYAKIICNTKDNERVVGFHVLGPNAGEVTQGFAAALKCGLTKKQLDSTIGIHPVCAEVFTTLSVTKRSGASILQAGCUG

In the case of `O=C(c1ccc(N2CCOCC2)cc1)N1CCCC(N(Cc2ccccc2)C(=O)CCl)CC1` (centres unmarked) [BPK-29, N-benzyl-2-chloro-N-(1-(4-morpholinobenzoyl)azepan-4-yl)acetamide], the “BPK-29-competed isoTOP-ABPP analysis” value in experiment [1] is given as “Yes (Competed defined as showing R value ≥ 3.0 at 40 μM of test compound)”. In experiment [2], the anchorage-independent growth entry is “minimally affected”.
